Target: T1, soluble guanylate cyclase (sGC) expressed by CHO-K1-Rat sGC monoclonal cell line (Rattus norvegicus, UniProt P19686+P20595)
T1 construct: expressed in transfected cells; host or cells: CHO-K1
T1 sequence (P19686 1-690): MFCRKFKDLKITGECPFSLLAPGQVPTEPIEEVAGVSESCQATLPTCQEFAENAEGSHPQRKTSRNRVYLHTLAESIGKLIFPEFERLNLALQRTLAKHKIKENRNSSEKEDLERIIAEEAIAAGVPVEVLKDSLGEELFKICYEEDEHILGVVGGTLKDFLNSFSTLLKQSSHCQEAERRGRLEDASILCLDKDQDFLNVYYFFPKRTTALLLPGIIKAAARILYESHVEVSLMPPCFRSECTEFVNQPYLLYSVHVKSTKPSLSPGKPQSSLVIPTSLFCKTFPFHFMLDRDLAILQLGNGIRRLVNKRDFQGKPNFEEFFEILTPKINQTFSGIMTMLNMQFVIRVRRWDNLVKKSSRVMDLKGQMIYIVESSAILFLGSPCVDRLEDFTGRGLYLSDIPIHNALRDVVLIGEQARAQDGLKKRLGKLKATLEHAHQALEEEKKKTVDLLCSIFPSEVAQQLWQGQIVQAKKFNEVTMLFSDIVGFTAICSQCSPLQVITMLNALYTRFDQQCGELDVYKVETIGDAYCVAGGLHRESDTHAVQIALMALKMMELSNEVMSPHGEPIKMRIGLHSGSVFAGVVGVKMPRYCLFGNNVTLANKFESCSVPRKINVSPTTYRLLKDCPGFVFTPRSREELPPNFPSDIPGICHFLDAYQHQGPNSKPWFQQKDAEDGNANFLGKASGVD
T1 sequence (P20595 1-619): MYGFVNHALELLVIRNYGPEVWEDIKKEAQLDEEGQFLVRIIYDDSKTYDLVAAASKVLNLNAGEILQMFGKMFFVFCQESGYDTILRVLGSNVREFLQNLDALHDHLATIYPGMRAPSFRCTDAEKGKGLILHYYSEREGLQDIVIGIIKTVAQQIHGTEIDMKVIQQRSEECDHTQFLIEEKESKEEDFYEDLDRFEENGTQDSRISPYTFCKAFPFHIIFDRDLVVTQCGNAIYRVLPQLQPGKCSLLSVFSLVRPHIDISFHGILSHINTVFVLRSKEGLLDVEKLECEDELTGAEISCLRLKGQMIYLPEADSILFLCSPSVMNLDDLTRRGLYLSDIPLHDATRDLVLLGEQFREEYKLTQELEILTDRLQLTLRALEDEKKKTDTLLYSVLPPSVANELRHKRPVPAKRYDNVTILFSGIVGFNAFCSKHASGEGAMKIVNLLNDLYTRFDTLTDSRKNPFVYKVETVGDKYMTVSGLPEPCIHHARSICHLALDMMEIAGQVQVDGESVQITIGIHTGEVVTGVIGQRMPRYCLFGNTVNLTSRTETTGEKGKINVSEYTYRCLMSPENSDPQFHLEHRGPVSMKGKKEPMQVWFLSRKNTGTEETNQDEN
Experiment: Effect on recombinant guanylate cyclase reporter cell line (CHO-K1-Rat sGC, Cisbio cGMP HTRF)
Type: cell-based
Details: activating soluble guanylate cyclase
Source text: Transfection of Soluble Guanylate Cyclase (sGC) gene into CHO-K1 cells and selection of cells with stably and highly expressed sGC: Rat sGCα1 and Rat sGCβ1 Genes were synthesized, and then pcDNA3.1(+)-rat sGCα1 and pcDNA3.1/Hygro (+)-rat sGCβ1 plasmid were constructed; the plasmid was co-transfected into CHO-K1 cells, and a positive clone cell line stably expressing CHO-K1-Rat sGC was selected using the Cisbio cGMP HTRF assay kit.
The activity of the compound on the CHO-K1-Rat sGC monoclonal cell line was determined: The CHO-K1-Rat sGC monoclonal cell line was cultured, and used for test operation at degree of fusion of about 70% to 90%. The cells were resuspended in complete medium after TrypLE digestion; the cells were inoculated in a 384-well (low volume tissues culture treated) cell culture plate at a seeding density of 7500/well in 25 μL of complete medium and incubated at 37° C. in 5% CO2 atmosphere for 20 hours; the test compounds were dissolved and dilute with DMSO to give 10 concentration gradients (2× working concentration); 384-well cell culture plates were centrifugated (200 g) for 3 seconds by inversion at RT, medium was removed; The test compounds in each different concentration gradient and corresponding reagent were added into each cell well according to the detection process of Cisbio cGMP HTRF assay kit. The data were collected with Envision HTRF detector and the EC50 value of each compound in activating soluble guanylate cyclase was calculated.

- EC50: 370 nM
Compound: COC(=O)Nc1c(N)nc(-c2nn(Cc3ccccc3F)c3c(F)cccc23)nc1N [Example 10, methyl (4,6-diamino-2-(7-fluoro-1-(2-fluorobenzyl)-1H-indazol-3-yl)pyrimidin-5-yl)carbamate]
